Source: ChEMBL document CHEMBL1201862, “PubChem BioAssay data set” (2004)
The source made the active and inactive calls. No stated cut-off is given here; in the data, actives have a measured IC50 and inactives only a lower limit.

Molecular target: Envelope glycoprotein gp160 (Human immunodeficiency virus 1, UniProt Q6QLK5)
Experiment: cell-free HIV fusion peptide-binding blockers – biochemical, uHTS, fluorescence dequenching, […] (AID 1986)

Chain of Envelope glycoprotein gp160 (Q6QLK5 whole entry, the tested form may be a part): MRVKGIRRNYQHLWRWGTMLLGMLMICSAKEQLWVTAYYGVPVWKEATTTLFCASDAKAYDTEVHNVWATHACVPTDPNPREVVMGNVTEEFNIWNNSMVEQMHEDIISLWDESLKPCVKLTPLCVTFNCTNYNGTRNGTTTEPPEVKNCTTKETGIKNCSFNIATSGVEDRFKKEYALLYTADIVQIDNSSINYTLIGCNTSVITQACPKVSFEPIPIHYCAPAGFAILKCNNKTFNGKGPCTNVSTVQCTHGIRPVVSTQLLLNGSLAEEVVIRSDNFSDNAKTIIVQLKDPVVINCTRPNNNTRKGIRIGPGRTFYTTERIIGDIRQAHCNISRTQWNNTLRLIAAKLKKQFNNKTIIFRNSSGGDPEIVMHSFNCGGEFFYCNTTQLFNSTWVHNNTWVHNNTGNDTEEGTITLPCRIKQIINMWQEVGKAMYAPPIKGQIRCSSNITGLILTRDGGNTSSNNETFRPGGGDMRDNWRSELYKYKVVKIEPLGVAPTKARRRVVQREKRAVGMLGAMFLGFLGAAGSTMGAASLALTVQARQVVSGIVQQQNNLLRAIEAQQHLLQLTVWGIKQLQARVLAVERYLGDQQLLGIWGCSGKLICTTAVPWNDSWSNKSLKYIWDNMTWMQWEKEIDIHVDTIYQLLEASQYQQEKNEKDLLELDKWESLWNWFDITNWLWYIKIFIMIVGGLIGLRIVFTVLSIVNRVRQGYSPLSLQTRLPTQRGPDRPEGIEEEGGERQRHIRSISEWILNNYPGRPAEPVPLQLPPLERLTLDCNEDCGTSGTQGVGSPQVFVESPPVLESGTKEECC

Row | Structure (SMILES) | IC50
1 | Cc1ccc(S(=O)(=O)Oc2ccc(/C=C3/C(=N)N4C(=NC3=O)SN=C4S(C)(=O)=O)cc2)cc1 | 16.9 µM (active)
2 | O=C(O)c1ccccc1NC(=O)c1ccccc1Nc1ccccc1 | 17.5 µM (active)
3 | O=C(O)CCCCCN1C(=O)/C(=C\c2cn(-c3ccccc3)nc2-c2cccs2)SC1=S | 9.84 µM (active)
4 | CCOC(=O)C1=C(C)N=c2s/c(=C\c3ccc(OCC(=O)O)cc3)c(=O)n2C1c1ccc(OC(C)C)cc1 (centres undefined) | 16.3 µM (active)
